The values below come from publication PMC4368042 (ACS Chemical Neuroscience, 2015).

SMILES strings stand for the structures. Entries after “also recorded” stand apart in the source; their conditions may differ. Some results are limits rather than exact numbers.

Experiment [1] addresses hM3 (native human M3 receptor) (Homo sapiens, UniProt P20309). Nature of the experiment: cell-based. The format is cell-based. The note with it: for Emax: read-out: hM3 Emax (relative to acetylcholine).
The next experiment has as its target hM3Dq (Homo sapiens, UniProt P20309, A239G/Y149C). Nature of the experiment: cell-based. The note with it: for Emax: read-out: hM3Dq Emax (relative to CNO); for hM3Dq potency decrease on replacing methyl with n-propyl: 4d vs 4a, 5d vs 5a. The format is cell-based.
In the next experiment the target is T1, 5HT2C (Homo sapiens, UniProt P28335).
T1 sequence (P28335 33-458): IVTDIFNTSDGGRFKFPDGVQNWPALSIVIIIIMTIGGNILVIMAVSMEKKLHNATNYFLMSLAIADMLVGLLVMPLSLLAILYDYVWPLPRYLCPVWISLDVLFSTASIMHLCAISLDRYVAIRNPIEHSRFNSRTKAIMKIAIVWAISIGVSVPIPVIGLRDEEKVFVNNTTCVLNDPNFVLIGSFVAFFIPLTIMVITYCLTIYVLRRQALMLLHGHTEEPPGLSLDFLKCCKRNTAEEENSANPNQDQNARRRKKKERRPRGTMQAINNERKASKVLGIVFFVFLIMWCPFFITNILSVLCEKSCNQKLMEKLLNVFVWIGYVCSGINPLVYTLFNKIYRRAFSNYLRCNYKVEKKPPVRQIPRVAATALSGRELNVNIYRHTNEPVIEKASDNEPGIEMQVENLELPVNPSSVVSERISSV
Nature of the experiment: 5HT2C radioligand binding assay. The note with it: for Ki: Ki 5HT2C, radioligand binding.

The target in the next experiment is H1 (Homo sapiens, UniProt P35367). Nature of the experiment: biochemical. It counts as binding. The conditions noted are these: for Ki: Ki H1, radioligand binding.
In another experiment the target is T2, α1A (Homo sapiens, UniProt P35348).
T2 sequence (P35348 1-466): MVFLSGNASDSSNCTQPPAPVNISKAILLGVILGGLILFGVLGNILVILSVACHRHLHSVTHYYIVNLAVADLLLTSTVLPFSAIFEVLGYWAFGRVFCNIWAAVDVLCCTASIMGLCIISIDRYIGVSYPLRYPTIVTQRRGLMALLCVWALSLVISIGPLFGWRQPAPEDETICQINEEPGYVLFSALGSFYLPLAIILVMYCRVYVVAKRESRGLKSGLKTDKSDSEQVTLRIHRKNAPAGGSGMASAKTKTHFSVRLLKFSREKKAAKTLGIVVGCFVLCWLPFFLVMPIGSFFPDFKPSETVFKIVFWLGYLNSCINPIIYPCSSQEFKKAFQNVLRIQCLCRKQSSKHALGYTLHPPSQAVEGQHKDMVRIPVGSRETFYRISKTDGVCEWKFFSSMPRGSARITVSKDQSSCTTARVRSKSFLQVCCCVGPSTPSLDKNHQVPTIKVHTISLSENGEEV
In words: α1A radioligand binding assay. The note with it: for Ki: Ki α1A, radioligand binding.

Another experiment addresses 5HT2A (Homo sapiens, UniProt P28223). Nature of the experiment: biochemical. The conditions noted are these: for Ki: Ki 5HT2A, radioligand binding. It counts as binding.

Chain of hM3 (native human M3 receptor) (P20309 whole entry): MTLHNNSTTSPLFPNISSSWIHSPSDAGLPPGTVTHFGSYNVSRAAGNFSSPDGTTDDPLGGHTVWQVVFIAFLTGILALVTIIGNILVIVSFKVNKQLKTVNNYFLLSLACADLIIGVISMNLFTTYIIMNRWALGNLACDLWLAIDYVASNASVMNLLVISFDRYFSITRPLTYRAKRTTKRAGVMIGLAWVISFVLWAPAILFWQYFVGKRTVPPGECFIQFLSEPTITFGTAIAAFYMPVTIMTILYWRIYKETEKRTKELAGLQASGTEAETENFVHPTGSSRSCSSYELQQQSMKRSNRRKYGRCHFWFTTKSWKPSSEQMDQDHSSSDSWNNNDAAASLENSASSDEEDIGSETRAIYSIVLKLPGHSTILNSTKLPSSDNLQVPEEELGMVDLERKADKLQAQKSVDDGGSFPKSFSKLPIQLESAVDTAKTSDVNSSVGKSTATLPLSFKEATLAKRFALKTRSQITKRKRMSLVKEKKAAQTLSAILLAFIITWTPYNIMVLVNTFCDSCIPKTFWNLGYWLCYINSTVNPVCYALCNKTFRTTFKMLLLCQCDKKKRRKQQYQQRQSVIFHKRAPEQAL
Chain of H1 (P35367 whole entry): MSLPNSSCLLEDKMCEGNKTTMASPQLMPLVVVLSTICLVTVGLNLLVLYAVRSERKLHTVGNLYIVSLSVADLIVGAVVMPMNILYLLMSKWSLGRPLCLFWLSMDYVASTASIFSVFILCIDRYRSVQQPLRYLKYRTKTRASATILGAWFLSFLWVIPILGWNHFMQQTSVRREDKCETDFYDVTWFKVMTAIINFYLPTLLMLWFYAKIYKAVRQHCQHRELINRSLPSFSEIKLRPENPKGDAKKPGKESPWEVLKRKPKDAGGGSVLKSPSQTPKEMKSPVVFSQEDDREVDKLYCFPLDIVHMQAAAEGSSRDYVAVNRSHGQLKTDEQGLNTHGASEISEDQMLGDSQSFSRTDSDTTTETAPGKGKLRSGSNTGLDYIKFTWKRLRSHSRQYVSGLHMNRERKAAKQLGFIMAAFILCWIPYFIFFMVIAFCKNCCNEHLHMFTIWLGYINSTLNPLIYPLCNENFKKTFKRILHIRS
Chain of 5HT2A (P28223 whole entry, species assumed): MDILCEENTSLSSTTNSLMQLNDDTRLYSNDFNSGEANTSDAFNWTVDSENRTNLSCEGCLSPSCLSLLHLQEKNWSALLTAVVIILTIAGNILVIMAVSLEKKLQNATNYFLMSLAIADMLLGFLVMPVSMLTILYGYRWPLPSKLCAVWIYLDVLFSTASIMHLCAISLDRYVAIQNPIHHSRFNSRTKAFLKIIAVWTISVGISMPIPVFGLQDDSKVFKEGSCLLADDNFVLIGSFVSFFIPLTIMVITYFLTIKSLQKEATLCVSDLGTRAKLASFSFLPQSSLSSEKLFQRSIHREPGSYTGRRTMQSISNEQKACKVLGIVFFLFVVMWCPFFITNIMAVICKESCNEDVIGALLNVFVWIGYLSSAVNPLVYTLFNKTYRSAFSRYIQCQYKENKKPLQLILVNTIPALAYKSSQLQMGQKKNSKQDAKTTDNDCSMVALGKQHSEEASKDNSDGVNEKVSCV
Chain of hM3Dq (P20309 whole entry Y149C/A239G): as the sequence (P20309 whole entry) above, with Y149C, A239G counted along it

For the compound `CC(=O)OCC[N+](C)(C)C` [ACh, acetylcholine, reference compound], the “agonist activity for hM3 (in words)” value in experiment [1] is given as “potent hM3 agonist”. Further, at hM3Dq, the “agonist activity for hM3Dq (in words)” value was “does not activate”.

In the case of `CC(C)N1CCN(C2=Nc3cc(Cl)ccc3Nc3ccccc32)CC1` [Compound 4c, 8-Chloro-11-(4-isopropylpiperazin-1-yl)-5H-dibenzo[b,e][1,4]diazepine], the concentration giving a half-maximal response (EC50) (usually the concentration at which the effect is half-maximal) is above 30000 nM in experiment [1] and 13 nM at hM3Dq. In addition, the Ki – broadly, a dissociation constant, usually derived from enzyme kinetics or from competition with a known ligand – at 5HT2C turned out to be 17 nM; on H1 it was 4.6 nM; on α1A it was 37 nM. In addition, the maximal response (Emax) (as a rule, the maximal effect, on the per cent scale that the assay sets) on hM3Dq turned out to be 45%.

In experiment [1], `CCCN1CCN(C2=Nc3cc(Cl)ccc3Nc3ccccc32)CC1` [Compound 4d, 8-Chloro-11-(4-propylpiperazin-1-yl)-5H-dibenzo[b,e][1,4]diazepine] yielded a 50% effective concentration (EC50) above 30000 nM. On hM3Dq, the midpoint of the response, the EC50, lay at 71 nM; the “hM3Dq potency decrease on replacing methyl with n-propyl” value is given as “approximately 70 fold”; the maximal effect (Emax) is 50%.

As to `CC[N+]1([O-])CCN(C2=Nc3cc(Cl)ccc3Nc3ccccc32)CC1` [Compound 5b, 4-(8-Chloro-5H-dibenzo[b,e][1,4]diazepin-11-yl)-1-ethylpiperazine N-oxide], the EC50 in experiment [1] was above 30000 nM; at hM3Dq it was 19 nM. Besides, the inhibition constant (Ki) is 1900 nM on 5HT2A, 5100 nM on 5HT2C, 160 nM at H1 and above 1000 nM at α1A. The “selectivity for hM3Dq over H1” value on H1 was “about 8 fold”. In addition, the Emax at hM3Dq worked out at 50%.

Consider `CC(C)[N+]1([O-])CCN(C2=Nc3cc(Cl)ccc3Nc3ccccc32)CC1` [Compound 5c, 4-(8-Chloro-5H-dibenzo[b,e][1,4]diazepin-11-yl)-1-isopropylpiperazine N-oxide], for which the half-maximal effective concentration (EC50) in experiment [1] is above 30000 nM; at hM3Dq it was 190 nM. For the same compound, the inhibition constant Ki was 5200 nM at 5HT2A, 6700 nM at 5HT2C, 6200 nM on H1 and 320 nM at α1A. Further, at α1A, the “selectivity for hM3Dq over α1A” value was “about 2 fold”. In addition, at hM3Dq, the maximal response (Emax) was 45%.

`CCC[N+]1([O-])CCN(C2=Nc3cc(Cl)ccc3Nc3ccccc32)CC1` [Compound 5d, 4-(8-Chloro-5H-dibenzo[b,e][1,4]diazepin-11-yl)-1-propylpiperazine N-oxide] registered an EC50 in experiment [1] above 30000 nM. In addition, at hM3Dq, the half-maximal effective concentration (EC50) came out at 740 nM, the “hM3Dq potency decrease on replacing methyl with n-propyl” value is around 100 fold and the Emax was found to be 79%.

For the compound `C[N+]1(C)CCN(C2=Nc3cc(Cl)ccc3Nc3ccccc32)CC1.[I-]` [Compound 6, 4-(8-Chloro-5H-dibenzo[b,e][1,4]diazepin-11-yl)-1,1-dimethylpiperazin-1-ium iodide], in experiment [1], the response was half-maximal at 9.5 nM (EC50), the “selectivity for hM3Dq over hM3” value is listed as above 100 fold and the Emax amounted to 92%. At hM3Dq, the EC50 was determined as 0.069 nM, the “fold more potent than compound 4a (clozapine) at hM3Dq” value is “about 15 fold” and the Emax worked out at 100%.

With `O=C1CN(C2=Nc3cc(Cl)ccc3Nc3ccccc32)CCN1` [Compound 7, 4-(8-Chloro-5H-dibenzo[b,e][1,4]diazepin-11-yl)piperazin-2-one], in experiment [1], the EC50 was above 30000 nM and the “agonist activity for hM3 (in words)” value is given as “did not activate”. On hM3Dq, the EC50 was above 30000 nM and the “agonist activity for hM3Dq (in words)” value was “did not display any agonist activity”.

In the case of `O=C1NC(=O)C2(CCN(C3=Nc4cc(Cl)ccc4Nc4ccccc43)CC2)N1` [Compound 9, 8-(8-Chloro-5H-dibenzo[b,e][1,4]diazepin-11-yl)-1,3,8-triazaspiro[4.5]decane-2,4-dione], in experiment [1], the EC50 is above 30000 nM and the “agonist activity for hM3 (in words)” value is recorded as “did not activate”. Also, at hM3Dq, the EC50 was above 30000 nM and the “agonist activity for hM3Dq (in words)” value is recorded as “did not activate”.

For the compound `NC1(C(=O)O)CCN(C2=Nc3cc(Cl)ccc3Nc3ccccc32)CC1` [Compound 10, 4-Amino-1-(8-chloro-5H-dibenzo[b,e][1,4]diazepin-11-yl)piperidine-4-carboxylic acid], in experiment [1], the concentration for a half-maximal effect (EC50) is above 30000 nM and the “agonist activity for hM3 (in words)” value is “did not activate”. Further, on hM3Dq, the EC50 was above 30000 nM and the “agonist activity for hM3Dq (in words)” value was “did not activate”.

As for `CC(=O)N1CCN(C2=Nc3cc(Cl)ccc3Nc3ccccc32)CC1` [Compound 12, 1-(4-(8-Chloro-5H-dibenzo[b,e][1,4]diazepin-11-yl)piperazin-1-yl)ethanone], in experiment [1], the 50% effective concentration (EC50) was above 30000 nM and the “agonist activity for hM3 (in words)” value is “did not activate”. Moreover, at hM3Dq, the concentration giving a half-maximal response (EC50) was above 30000 nM and the “agonist activity for hM3Dq (in words)” value is “did not display any agonist activity”.

On to `CS(=O)(=O)N1CCN(C2=Nc3cc(Cl)ccc3Nc3ccccc32)CC1` [Compound 14, 8-Chloro-11-(4-(methylsulfonyl)piperazin-1-yl)-5H-dibenzo[b,e][1,4]diazepine], for which, in experiment [1], the concentration giving a half-maximal response (EC50) was above 30000 nM and the “agonist activity for hM3 (in words)” value is recorded as “did not activate”. In addition, at hM3Dq, the EC50 was above 30000 nM and the “agonist activity for hM3Dq (in words)” value is on record as “did not display any agonist activity”.

Take `c1ccc2c(c1)N=C(N1CCNCC1)c1ccccc1N2` [Compound 21, 11-(Piperazin-1-yl)-5H-dibenzo[b,e][1,4]diazepine]: in experiment [1], the “agonist activity for hM3 (in words)” value was “do not activate; also recorded: inactive” and the maximal response (Emax) was around 20%. In addition, at 5HT2A, the “selectivity for hM3Dq over 5HT2A” value is given as 40 fold and the Ki came to 66 nM. At 5HT2C, the “selectivity for hM3Dq over 5HT2C” value was 100 fold and the Ki was 170 nM. For the same compound, at H1, the “selectivity for hM3Dq over H1” value amounted to 3.5 fold and affinity was put at a Ki of 6 nM. Further, at α1A, the “selectivity for hM3Dq over α1A” value was determined as 165 fold and the affinity, expressed as Ki, was 280 nM. Besides, at hM3Dq, the response was half-maximal at 1.7 nM (EC50) and the Emax was found to be 100%.

Regarding `CCN1CCN(C2=Nc3ccccc3Nc3ccccc32)CC1` [Compound 22, 11-(4-Ethylpiperazin-1-yl)-5H-dibenzo[b,e][1,4]diazepine], the “agonist activity for hM3 (in words)” value in experiment [1] is “did not exhibit any agonist activity”. Besides, the maximal effect (Emax) at hM3Dq was 81%.

Regarding `CC[N+]1([O-])CCN(C2=Nc3ccccc3Nc3ccccc32)CC1` [Compound 23, 4-(5H-Dibenzo[b,e][1,4]diazepin-11-yl)-1-ethylpiperazine N-oxide], in experiment [1], the EC50 was above 30000 nM and the “agonist activity for hM3 (in words)” value was “did not exhibit any agonist activity”. Also, at hM3Dq, it took 220 nM to reach a half-maximal effect (EC50), the “fold less potent for hM3Dq than compound 5b” value is “about 10 fold” and the Emax came out at 59%.

Turning to `CN1CCN(C2=Nc3ccccc3Cc3ccccc32)CC1` [perlapine, reference compound], the “selectivity for hM3Dq over hM3” value in experiment [1] was > 10 000 fold.
